Assay results published in the supplement of paper PMC6045584.
± gives the standard deviation of the averaged measurements.

Experiments:
[1] = compound: COc1cc2ncnc(Nc3ccc(F)c(Cl)c3)c2cc1NC(=O)/C=C/CN1CCCCC1; assay: surviving fraction relative to DMSO-only wells; higher = less growth inhibition; conditions: exposure time: 5 days
Summary of the method: (§1)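 Five days of continuous inhibitor exposure, at 0.5, 1, 5, 10, 50, 100, 500 and 1000 nM, followed a 24-hour period after log-phase tumour cell lines were seeded at 250–500 cells per well in 384-well plates. Surviving fraction was derived from CellTiter-Glo luminescence relative to the median of DMSO-only wells. Plates were read after 10 minutes at room temperature, and lines screened three times were kept only if replicate Pearson r >0.7 and median Z' >0.3.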

XAV-939 = compound: Oc1nc(-c2ccc(C(F)(F)F)cc2)nc2c1CSCC2 [XAV-939]; assay: as above; conditions: exposure time: 5 days
Summary of the method: as §1

Test System	surviving fraction ([1]; 0.5 nM)	surviving fraction ([1]; 1 nM)	surviving fraction ([1]; 5 nM)	surviving fraction ([1]; 10 nM)	surviving fraction ([1]; 50 nM)	surviving fraction ([1]; 100 nM)	surviving fraction ([1]; 500 nM)	surviving fraction ([1]; 1000 nM)	surviving fraction (XAV-939; 0.5 nM)	surviving fraction (XAV-939; 1 nM)	surviving fraction (XAV-939; 5 nM)	surviving fraction (XAV-939; 10 nM)	surviving fraction (XAV-939; 50 nM)	surviving fraction (XAV-939; 100 nM)	surviving fraction (XAV-939; 500 nM)	surviving fraction (XAV-939; 1000 nM)
SUM149.B1*.S BREAST	1.06 ± 0.066	1.03 ± 0.035	1.02 ± 0.02	1.03 ± 0.043	0.962 ± 0.026	0.977 ± 0.036	0.833 ± 0.026	0.914 ± 0.043	0.968 ± 0.033	1.07 ± 0.059	1.04 ± 0.047	1.06 ± 0.082	0.996 ± 0.045	1.06 ± 0.033	1.01 ± 0.03	1 ± 0.026
JURKAT HAEMATOPOIETIC AND LYMPHOID TISSUE	1.08 ± 0.037	1.06 ± 0.029	1.06 ± 0.043	1.02 ± 0.017	1.03 ± 0.026	1.04 ± 0.034	0.881 ± 0.056	0.297 ± 0.025	1.03 ± 0.011	1.051 ± 0.0042	1.04 ± 0.013	1.03 ± 0.03	0.9907 ± 0.0059	1 ± 0.018	0.987 ± 0.02	0.981 ± 0.029
YAMATO SYNOVIAL	1.23 ± 0.053	1.29 ± 0.18	1.3 ± 0.02	1.45 ± 0.17	1.31 ± 0.095	1.39 ± 0.068	1.31 ± 0.16	1.27 ± 0.077	1.28 ± 0.22	1.22 ± 0.057	1.26 ± 0.095	1.34 ± 0.18	1.3 ± 0.049	1.24 ± 0.053	1 ± 0.095	1.09 ± 0.037
MG63 BONE	1.04 ± 0.072	1 ± 0.049	1.05 ± 0.033	1.06 ± 0.062	1.04 ± 0.056	1.03 ± 0.08	0.911 ± 0.039	0.89 ± 0.073	0.98 ± 0.028	1.03 ± 0.034	1.025 ± 0.0083	1.09 ± 0.018	0.947 ± 0.034	0.923 ± 0.03	0.7 ± 0.0078	0.723 ± 0.021
COLO320DM LARGE INTESTINE	1.04 ± 0.011	1.15 ± 0.067	1.07 ± 0.015	1.07 ± 0.068	1.12 ± 0.076	1.07 ± 0.055	0.685 ± 0.03	0.377 ± 0.025	1.1 ± 0.051	1.14 ± 0.069	1.08 ± 0.15	0.997 ± 0.11	1.08 ± 0.013	0.994 ± 0.075	0.827 ± 0.071	0.805 ± 0.088
CADOES1 SOFT TISSUE	0.985 ± 0.058	0.938 ± 0.14	1.03 ± 0.16	0.873 ± 0.046	0.884 ± 0.07	0.896 ± 0.047	0.891 ± 0.018	0.7 ± 0.031	0.957 ± 0.1	0.993 ± 0.092	0.816 ± 0.0092	0.903 ± 0.049	0.857 ± 0.13	0.899 ± 0.094	0.922 ± 0.076	0.913 ± 0.091
SG27 HEADNECK	1.06 ± 0.071	1.16 ± 0.22	0.944 ± 0.14	0.937 ± 0.07	0.927 ± 0.014	1.01 ± 0.061	0.988 ± 0.015	0.864 ± 0.024	1.1 ± 0.076	0.993 ± 0.089	1 ± 0.058	1.02 ± 0.052	1.08 ± 0.049	0.966 ± 0.081	0.825 ± 0.062	0.802 ± 0.11
MHM BONE	1.01 ± 0.044	0.998 ± 0.021	1.02 ± 0.025	0.998 ± 0.032	1.01 ± 0.011	1.03 ± 0.024	0.974 ± 0.011	0.926 ± 0.016	0.999 ± 0.011	1.02 ± 0.033	1.024 ± 0.009	1.03 ± 0.033	0.96 ± 0.081	1.04 ± 0.012	0.963 ± 0.005	0.949 ± 0.029
SCC36 HEADNECK	0.84 ± 0.054	0.889 ± 0.024	0.656 ± 0.059	0.618 ± 0.0085	0.432 ± 0.014	0.424 ± 0.057	0.338 ± 0.022	0.235 ± 0.013	1.07 ± 0.11	0.964 ± 0.16	1.19 ± 0.045	1.06 ± 0.082	1.11 ± 0.032	1.1 ± 0.077	0.825 ± 0.029	0.711 ± 0.022
MDAMB453 BREAST	1.05 ± 0.021	1.04 ± 0.08	1.03 ± 0.1	1.09 ± 0.093	1.07 ± 0.044	0.887 ± 0.048	0.705 ± 0.033	0.509 ± 0.069	0.991 ± 0.053	1.02 ± 0.034	1.1 ± 0.088	1.08 ± 0.043	1.06 ± 0.04	1.12 ± 0.074	1.02 ± 0.069	0.961 ± 0.049
HCC1806 BREAST	1.11 ± 0.16	1.05 ± 0.11	1 ± 0.083	0.79 ± 0.046	0.663 ± 0.087	0.573 ± 0.014	0.458 ± 0.052	0.322 ± 0.022	0.98 ± 0.029	1.2 ± 0.089	1.11 ± 0.078	1.07 ± 0.061	1.14 ± 0.13	1.1 ± 0.036	1.04 ± 0.073	1.06 ± 0.091
HOSMNG BONE	0.909 ± 0.07	0.924 ± 0.11	0.958 ± 0.063	0.917 ± 0.086	1.033 ± 0.0083	1.02 ± 0.046	0.97 ± 0.1	0.953 ± 0.017	0.922 ± 0.14	1.01 ± 0.11	0.947 ± 0.077	0.934 ± 0.1	0.948 ± 0.17	0.944 ± 0.089	0.934 ± 0.069	1.06 ± 0.094
SG32 HEADNECK	1.24 ± 0.15	0.962 ± 0.098	0.846 ± 0.018	0.958 ± 0.046	0.819 ± 0.071	0.865 ± 0.029	0.695 ± 0.061	0.301 ± 0.034	0.996 ± 0.26	1.02 ± 0.092	1.66 ± 1.1	1.13 ± 0.1	1.02 ± 0.12	1.08 ± 0.13	0.721 ± 0.17	0.603 ± 0.034
MFM223 BREAST	1.094 ± 0.01	1.09 ± 0.042	1.14 ± 0.073	1.15 ± 0.072	1.2 ± 0.078	1.19 ± 0.06	0.914 ± 0.06	0.587 ± 0.055	1.18 ± 0.037	1.11 ± 0.062	1.12 ± 0.023	1.112 ± 0.0058	0.913 ± 0.034	1.08 ± 0.043	0.891 ± 0.059	0.685 ± 0.033
MDAMB134 BREAST	0.947 ± 0.17	1.07 ± 0.061	0.944 ± 0.014	0.981 ± 0.14	1.05 ± 0.28	1.02 ± 0.21	0.795 ± 0.012	0.732 ± 0.013	1.05 ± 0.052	0.999 ± 0.041	1.06 ± 0.17	0.93 ± 0.03	1.13 ± 0.1	1.06 ± 0.22	1.15 ± 0.052	1.03 ± 0.051
NCIH441 LUNG	1.08 ± 0.13	1.04 ± 0.041	1.05 ± 0.073	1.06 ± 0.04	0.981 ± 0.038	0.859 ± 0.12	0.689 ± 0.051	0.5 ± 0.013	0.962 ± 0.096	1.07 ± 0.052	1.02 ± 0.064	1.07 ± 0.065	1.02 ± 0.077	1.06 ± 0.054	1.01 ± 0.045	0.918 ± 0.052
